Data reported in paper PMC5004176, “The antifungal plant defensin AtPDF2.3 from Arabidopsis thaliana blocks potassium channels” (Scientific Reports, 2016).
Ends that are not written are not given here.

How the values were obtained:
Nav1.2 = assay: Two-electrode voltage-clamp on Nav1.2 expressed in X. laevis oocytes; format: cell-based; details: 5 μM, n ≥ 4
Nav1.4 = assay: Two-electrode voltage-clamp on Nav1.4 expressed in X. laevis oocytes; format: cell-based; details: 5 μM, n ≥ 4
Nav1.5 = assay: Two-electrode voltage-clamp on Nav1.5 expressed in X. laevis oocytes; format: cell-based; details: 5 μM, n ≥ 4
insect channel DmNav1 = assay: Two-electrode voltage-clamp on DmNav1 expressed in X. laevis oocytes; format: cell-based; details: 5 μM, n ≥ 4
Botrytis cinerea B05.10 = assay: Fungal growth inhibitory assay; format: cell-based; details: half strength PDB, 10^4 spores/mL, 48 hours, determined microscopically, n ≥ 3; read-out: IC50 (growth inhibition)
Botrytis cinerea R16 = assay: Fungal growth inhibitory assay; format: cell-based; details: half strength PDB, 10^4 spores/mL, 48 hours, determined microscopically, n ≥ 3; read-out: IC50 (growth inhibition)
Fusarium oxysporum = assay: Fungal growth inhibitory assay; format: cell-based; details: half strength PDB, 10^4 spores/mL, 48 hours, determined microscopically, n ≥ 3; read-out: IC50 (growth inhibition)
Fusarium culmorum = assay: Fungal growth inhibitory assay; format: cell-based; details: half strength PDB, 10^4 spores/mL, 48 hours, determined microscopically, n ≥ 3; read-out: IC50 (growth inhibition)
[1] = tested on: Saccharomyces cerevisiae BY4743 WT; assay: Yeast growth inhibitory assay; format: cell-based; details: MM medium, 24 hours, OD490nm, mean ± SEM, n ≥ 3, read-out: IC50 (growth inhibition)
[2] = tested on: Saccharomyces cerevisiae BY4741 ∆trk1; assay: Yeast growth inhibitory assay; format: cell-based; details: BY4741 ∆trk1, MM medium, 24 hours, OD490nm, mean ± SEM, n ≥ 3; read-out: IC50 (growth inhibition)
[3] = tested on: Saccharomyces cerevisiae BY4741 ∆arl1; assay: Yeast growth inhibitory assay; format: cell-based; details: BY4741 ∆arl1, MM medium, 24 hours, OD490nm, mean ± SEM, n ≥ 3; read-out: IC50 (growth inhibition)
[4] = tested on: Saccharomyces cerevisiae BY4741 ∆qdr2; assay: Yeast growth inhibitory assay; format: cell-based; details: BY4741 ∆qdr2, MM medium, 24 hours, OD490nm, mean ± SEM, n ≥ 3; read-out: IC50 (growth inhibition)
[5] = tested on: Saccharomyces cerevisiae BY4741 ∆sat4; assay: Yeast growth inhibitory assay; format: cell-based; details: BY4741 ∆sat4, MM medium, 24 hours, OD490nm, mean ± SEM, n ≥ 3; read-out: IC50 (growth inhibition)
[6] = tested on: Saccharomyces cerevisiae BY4741 ∆vhc1; assay: Yeast growth inhibitory assay; format: cell-based; details: BY4741 ∆vhc1, MM medium, 24 hours, OD490nm, mean ± SEM, n ≥ 3; read-out: IC50 (growth inhibition)
[7] = tested on: Saccharomyces cerevisiae BY4741 ∆ppz2; assay: Yeast growth inhibitory assay; format: cell-based; details: BY4741 ∆ppz2, MM medium, 24 hours, OD490nm, mean ± SEM, n ≥ 3; read-out: IC50 (growth inhibition)
[8] = tested on: Saccharomyces cerevisiae BY4741 ∆tok1; assay: Yeast growth inhibitory assay; format: cell-based; details: BY4741 ∆tok1, MM medium, 24 hours, OD490nm, mean ± SEM, n ≥ 3; read-out: IC50 (growth inhibition)
[9] = tested on: Saccharomyces cerevisiae BY4741 ∆nha1; assay: Yeast growth inhibitory assay; format: cell-based; details: BY4741 ∆nha1, MM medium, 24 hours, OD490nm, mean ± SEM, n ≥ 3; read-out: IC50 (growth inhibition)
[10] = tested on: Saccharomyces cerevisiae BY4741 ∆ppz1; assay: Yeast growth inhibitory assay; format: cell-based; details: BY4741 ∆ppz1, MM medium, 24 hours, OD490nm, mean ± SEM, n ≥ 3; read-out: IC50 (growth inhibition)
[11] = tested on: Saccharomyces cerevisiae BY4741 ∆kch1; assay: Yeast growth inhibitory assay; format: cell-based; details: BY4741 ∆kch1, MM medium, 24 hours, OD490nm, mean ± SEM, n ≥ 3; read-out: IC50 (growth inhibition)
[12] = tested on: Saccharomyces cerevisiae BY4741 ∆kkq8; assay: Yeast growth inhibitory assay; format: cell-based; details: BY4741 ∆kkq8, MM medium, 24 hours, OD490nm, mean ± SEM, n ≥ 3; read-out: IC50 (growth inhibition)
HepG2 cells = format: cell-based; details: up to 25 μM, 24 hours, XTT, relative to untreated, at least two experiments in quadruplicate
Experimental: HepG2 cells were seeded at 10.000 cells/well in 96-well plates and incubated for 24 hours. Subsequently, cells were treated either with water (untreated) or rAtPDF2.3 (0.01 μM–23.5 μM) for 24 hours after which cell viability was determined using the ‘Cell Proliferation Kit II (XTT) as described previously. ANOVA followed by Dunnett post hoc test was performed to analyze statistically significant differences between untreated and rAtPDF2.3-treated samples.
Supplementary Figure S4 Activity of rAtPDF2.3 on HepG2 cell viability. HepG2 cells were treated either with water (untreated) or rAtPDF2.3 (0.01 µM – 24.3 µM) for 24 hours, after which cell viability was determined by XTT staining. Results are expressed relative to the untreated samples. Mean ± standard error of at least two experiments in quadruplicate is shown. ANOVA followed by Dunnet post hoc test performed to analyze statistically significant differences between untreated and rAtPDF2.3-treated samples; * represents P = 0.03.
(1 picture or pasted object on this page, not shown here)

Kv1.1 = assay: Two-electrode voltage-clamp on Kv1.1 expressed in X. laevis oocytes; details: 3 μM, n ≥ 3
Experimental: (§1) For the expression of the voltage-gated potassium channels (rKv1.1, rKv1.2, hKv1.3, rKv1.4, rKv1.5, rKv1.6, Shaker IR, hKv3.1, rKv4.3, and hERG) in Xenopus laevis oocytes, the linearized plasmids were transcribed using the T7 or SP6 mMESSAGE-mMACHINE transcription kit (Ambion). The harvesting of stage V–VI oocytes from an anaesthetized female X. laevis frog was previously described[59]. Oocytes were injected with 50 nL of cRNA at a concentration of 1 ng/nL using a micro-injector (Drummond Scientific, USA). The oocytes were incubated in a solution containing (in mM): NaCl, 96; KCl, 2; CaCl2, 1.8; MgCl2, 2 and HEPES, 5 (pH 7.4), supplemented with 50 mg/L gentamycin sulfate.
(§2) Two-electrode voltage-clamp recordings were performed at room temperature (18–22 °C) using a Geneclamp 500 amplifier (Molecular Devices, USA) controlled by a pClamp data acquisition system (Axon Instruments, USA). Whole cell currents from oocytes were recorded 1–4 days after injection. Bath solution composition was ND96 (in mM): NaCl, 96; KCl, 2; CaCl2, 1.8; MgCl2, 2 and HEPES, 5 (pH 7.4) or HK (in mM): NaCl, 2; KCl, 96; CaCl2, 1.8; MgCl2, 2 and HEPES, 5 (pH 7.4). Voltage and current electrodes were filled with 3 M KCl. Resistances of both electrodes were kept between 0.7 and 1.5 MΩ. […] GV curves were calculated from IV relationships as follows: gK = IK/(Em−EK) with EK = (RT/zF)ln[K #0]o/[K #0]i. […]

Kv1.3 = assay: Two-electrode voltage-clamp on Kv1.3 expressed in X. laevis oocytes; details: 3 μM, n ≥ 3
Experimental: as §1, §2

Kv1.4 = assay: Two-electrode voltage-clamp on Kv1.4 expressed in X. laevis oocytes; details: 3 μM, n ≥ 3
Experimental: as §1, §2

Kv1.5 = assay: Two-electrode voltage-clamp on Kv1.5 expressed in X. laevis oocytes; details: 3 μM, n ≥ 3
Experimental: as §1, §2

Kv2.1 = assay: Two-electrode voltage-clamp on Kv2.1 expressed in X. laevis oocytes; details: 3 μM, n ≥ 3
Experimental: as §1, §2

Kv4.2 = assay: Two-electrode voltage-clamp on Kv4.2 expressed in X. laevis oocytes; details: 3 μM, n ≥ 3
Experimental: as §1, §2

Shaker IR = assay: Two-electrode voltage-clamp on Shaker IR expressed in X. laevis oocytes; details: 3 μM, n ≥ 3
Experimental: as §1, §2

## rAtPDF2.3: Arabidopsis thaliana plant defensin AtPDF2.3 produced recombinantly in Pichia pastoris (RTCESKSHRFKGPCVSTHNCANVCHNEGFGGGKCRGFRRRCYCTRHC; ends and bridges not checked; cysteine pairing not given here)
Nav1.2
  activity on Nav1.2: does not show activity
Nav1.4
  activity on Nav1.4: does not show activity
Nav1.5
  activity on Nav1.5: does not show activity
Insect channel DmNav1
  activity on DmNav1: does not show activity
Botrytis cinerea B05.10
  IC50: 5.8 µM
Botrytis cinerea R16
  IC50: 5.8 µM
Fusarium oxysporum
  IC50: 4.4 ± 1.6 µM
Fusarium culmorum
  IC50: 1 ± 0.4 µM
[1]
  IC50: 3.3 µM
[2]
  IC50: 1.5 µM
[3]
  IC50: 5.7 ± 0.2 µM
[4]
  IC50: 2.9 ± 0.2 µM
[5]
  IC50: 5.1 ± 0.1 µM
[6]
  IC50: 8 ± 0.2 µM
[7]
  IC50: 8.6 ± 0.5 µM
[8]
  IC50: 7.7 ± 0.5 µM
[9]
  IC50: 9.1 ± 0.7 µM
[10]
  IC50: 10.1 ± 0.5 µM
[11]
  IC50: 8.9 ± 0.3 µM
[12]
  IC50: 7.1 ± 0.1 µM
HepG2 cells
  cell viability in HepG2 cells: does not reduce cell viability
Kv1.1
  activity on Kv1.1 at single concentration: no effect
Kv1.3
  activity on Kv1.3 at single concentration: no effect
Kv1.4
  activity on Kv1.4 at single concentration: no effect
Kv1.5
  activity on Kv1.5 at single concentration: no effect
Kv2.1
  activity on Kv2.1 (Shab) at single concentration: no effect
Kv4.2
  activity on Kv4.2 (Shal) at single concentration: no effect
Shaker IR
  activity on Shaker IR at single concentration: no effect
